The source of these data is US11931352B2, “Combination therapies for treating cancer” (UNIVERSITY OF VIRGINIA PATENT FOUNDATION, priority 2018, dated 2024).

The conditions of data set [1]: relative to the methoxy compound; cited from earlier work.
The subject of data set [2] is CBFβ-SMMHC-expressing (Nras/CM) leukemia cells. Nature of the data set: Leukemia transplantation study in mice (leukemia latency). The data set is classed as in vivo, mouse. The following applies: i.p. from day 5; AI-10-49 200 mg/kg/day for 10 days, JQ1 50 mg/kg/day for 21 days. The procedure: Leukemia transplantation studies in mice. […] AI-10-49 was administered at 200 mg/kg/day from day 5 to day 14. […] Mice were sacrificed after visible characteristics of AML, including reduced motility and grooming activity, hunched back, and pale paws (anemia). Leukemic cells were extracted from spleen and analyzed at time of euthanasia as previously described (Kuo et al., 2006).
Statistical Analysis. Analysis was performed using R, a system for statistical computation and graphics (Ihaka and Gentleman, 1996). For mouse leukemia survival analysis, the leukemia latency and P-values were estimated using Survival package in R. P-value between groups was calculated using log-rank test. Relative cell viability, measured as the proportion of viable cells, was first arcsine-transformed to homogenize the variance. […] One-way ANOVA was performed followed by predetermined contrasts for FIGS. 2A, 2B, 2C, 2D, 2E, 4D and 7C. Two-way ANOVA was performed followed by Tukey's honest significance test for FIG. 3C. To compare the response curves (FIGS. 3A & 3D), an indicator variable was created to distinguish the two-drug treatment and one of the single-drug treatments. Two-way ANOVA was performed to compare a single-drug treatment and the two-drug treatment.

In data set [3] the target is T1, CBFβ (Homo sapiens, UniProt Q13951).
T1 sequence (Q13951 1-182): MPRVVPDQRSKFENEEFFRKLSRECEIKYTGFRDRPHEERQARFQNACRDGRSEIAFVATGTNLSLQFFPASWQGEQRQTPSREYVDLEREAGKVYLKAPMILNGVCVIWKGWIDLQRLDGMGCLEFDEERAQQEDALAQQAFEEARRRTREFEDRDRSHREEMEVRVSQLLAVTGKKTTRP
The following applies: cited from earlier work.

Data set [4] relates to non-inv(16) AML cells (U937, K562, Jurkat, Kasumi-1 and THP-1). Nature of the data set: MYC transcript levels in non-inv(16) AML cell lines. The following applies: 1 μM AI-10-49, 6 hrs. The format is cell-based. The procedure: (§1) Quantitative RT-PCR Analysis. mRNA was prepared with a PureLink® RNA Mini Kit (Life Technologies) and cDNA synthesis was performed with a SuperScript III kit (Life Technologies), per the manufacturers' instructions. Quantitative PCR analysis was conducted on an Applied Biosystems StepOnePlus System with Power SYBR® Green PCR Master Mix (Applied Biosystems). Expression levels were determined with the ΔCt method and normalized to ([…] and/or GAPDH. Sequences of primers are provided in the Key Resource Table.

Data set [5] relates to ME-1 cells. Kind of data set: RNA-sequencing expression analysis of AI-10-49 treated ME-1 cells. To be noted: AI-10-49 1 μM, 6 hrs. The format is cell-based, human. The procedure: RNA Sequencing. The RNA for RNA-sequencing was prepared with a PureLink® RNA Mini Kit. RNA concentration was quantified with a NanoDrop spectrophotometer (Thermo Scientific). RNA integrity was evaluated with a 2100 Bioanalyzer with an RNA 6000 kit (Agilent Technologies). Libraries were prepared with a TruSeq RNA library preparation kit (Illumina). Libraries were quantified by qPCR, normalized and pooled before sequencing with paired-end 90-bp reads on an Illumina HiSeq2000 in triplicate.
RNA-seq data analysis. Raw reads from RNA-seq experiment were assessed for their quality using fastqc, followed by alignment to the reference human genome (hg19) using tophat v 2.0.9, bowtie2/2.1.0 (Trapnell et al., 2009) with the default setting except the following parameters: -b2-very-sensitive-mate-inner-dist 160-mate-std-dev 80-no-coverage-search-transcriptome-index=hg19_knownGene_transcriptome_data. Differential gene expression analysis was performed by cufflinks v 2.2.0 (Trapnell et al., 2012).

Data set [6] concerns RING1B. Kind of data set: Time-course ChIP-qPCR for RING1B at E3 in ME-1 cells. The data set is classed as cell-based, human. To be noted: by 5 hr of AI-10-49 treatment. The protocol: (§2) Chromatin Immunoprecipitation (ChIP). […] Cross-linking of proteins to DNA was accomplished by the addition of 1% formaldehyde for 10 min to cultured cells at room temperature. After neutralization with glycine, cells were lysed in lysis buffer with protease inhibitors and samples were sonicated to an average DNA length of 200-400 bp with a bioruptor (Diagenode). After sonication, the chromatin was immunoprecipitated with 10 μg of antibody of interest at 4° C. overnight. Antibody bound complexes were isolated with Dynabeads (Life Technologies). DNA was purified using phenol-chloroform isoamyl-alcohol method. Immunoprecipitated DNA was analyzed by sequencing (explained below) or qPCR on a StepOnePlus System (Applied Biosystems) with Power SYBR® Green PCR Master Mix and calculated as % of input.
Background: Quantitative PCR measures a nucleic acid by following its amplification.

Data set [7] has as its system human primary inv(16) leukemic CD34+ cells. Nature of the data set: MYC expression in human primary inv(16) AML cells. The data set is classed as cell-based. To be noted: 5 μM AI-10-49, 24 hrs.
From the text: (§3) Primary Hematopoietic Cell Cultures. Human cord blood samples were collected from the UMASS Memorial Medical Center, and CD34^+ cells were isolated using the CD34 Microbead kit (Miltenyi Biotec). The use of the cord blood samples for research purposes was approved by the Ethics Committee of the University of Massachusetts Medical School. Human AML samples were received from Martin Peter Carroll (University of Pennsylvania) and Carsten Mueller-Tidow (University of Heidelberg, Germany). Hematopoietic CD34^+ cells were isolated from human AML bone marrow samples using the CD34 Microbead kit (Miltenyi Biotec). All patients gave written consent for use of their samples. […]
as §1

Data set [8] has as its system human cord blood CD34+ cells. Kind of data set: MYC expression in normal human CD34+ hematopoietic cells. The data set is classed as cell-based. To be noted: 5 μM AI-10-49, 24 hrs.
From the text: as §3, §1

Data set [9] relates to lineage negative mouse Cbfb+/MYH11 leukemic cells. Nature of the data set: MYC expression in mouse Cbfb+/MYH11 leukemic cells. The format is cell-based. The following applies: 5 μM AI-10-49, 24 hrs. The protocol: (§4) Murine bone marrow cells were isolated by crushing femur and tibia of the hind legs of mice. Wild type mouse bone marrow cells were cultured in StemSpan Serum-Free Expansion Medium (SFEM, Stemcell Technologies), 100 U/ml Penicillin and […] Streptomycin (Life Technologies) supplemented with 6 ng/ml murine recombinant IL3, 10 ng/ml murine recombinant IL6, and 50 ng/ml murine recombinant SCF. Cbfb^+/MYH11 and Nras^+/G120 leukemic bone marrow and spleen cells were cultured in StemSpan Serum-Free Expansion Medium (SFEM, Stemcell Technologies), 100 U/ml Penicillin and […] Streptomycin (Life Technologies) supplemented with 10 ng/ml murine recombinant IL3, and 50 ng/ml murine recombinant SCF.
as §1

Data set [10] deals with wild type lineage negative mouse bone marrow cells. Kind of data set: MYC expression in normal mouse bone marrow cells. The data set is classed as cell-based. The following applies: 5 μM AI-10-49, 24 hrs. The procedure: as §4, §1
For data set [11], the system named is H3K27ac. Nature of the data set: ChIP-seq for H3K27ac in ME-1 cells. The format is cell-based, human. The following applies: AI-10-49 1 μM, 6 hrs; DMSO 31,102. The protocol:
(§5) Chromatin Immunoprecipitation (ChIP). ME-1 cells were treated with DMSO or AI-10-49 (1 μM) for six hrs. Cross-linking of proteins to DNA was accomplished by the addition of 1% formaldehyde for 10 min to cultured cells at room temperature. After neutralization with glycine, cells were lysed in lysis buffer with protease inhibitors and samples were sonicated to an average DNA length of 200-400 bp with a bioruptor (Diagenode). After sonication, the chromatin was immunoprecipitated with 10 μg of antibody of interest at 4° C. overnight. Antibody bound complexes were isolated with Dynabeads (Life Technologies). DNA was purified using phenol-chloroform isoamyl-alcohol method. Immunoprecipitated DNA was analyzed by sequencing (explained below) or qPCR on a StepOnePlus System (Applied Biosystems) with Power SYBR® Green PCR Master Mix and calculated as % of input.
(§6) Chromatin immunoprecipitation followed by sequencing (ChIP-seq). DNA concentration was quantified with a NanoDrop spectrophotometer (Thermo Scientific). DNA integrity was evaluated with a 2100 Bioanalyzer (Agilent Technologies). […] Libraries were quantified by qPCR, normalized and pooled before sequencing with single-end 50-bp reads on an Illumina HiSeq4000).
(§7) ChIP-seq data analysis. ChIP-seq reads were aligned to the human genome (hg19) with Bowtie2 v 2.1.0 (Langmead and Salzberg, 2012) with the standard default settings. […]

Data set [12] concerns MYC. Nature of the data set: MYC transcript levels by qRT-PCR in ME-1 cells. The format is cell-based, human. To be noted: for MYC transcript and protein levels: single agent treatment of ME-1 cells. The procedure:
as §1

Data set [13] has as its system RUNX1. Kind of data set: ChIP-qPCR for RUNX1 at MYC enhancers in ME-1 cells. The format is cell-based, human. The procedure:
as §2

Data set [14] concerns MYC. Nature of the data set: MYC protein levels by immunoblot in ME-1 cells. The format is cell-based, human. The following applies: 0.1 μM and greater concentrations, 6 hrs. The protocol: Immunoblotting. ME-1 cells were lysed in modified RIPA buffer (50 mM Tris pH7.5, 150 mM NaCl, 1% NP40, 0.25% sodium deoxycholate and 1 mM EDTA) with phosphatase inhibitor (Sigma) and protease inhibitors (Millipore) for 15 min in ice followed by centrifugation. Nuclear and cytoplasmic fractions were isolated using Subcellular Protein Fractionation Kit (Thermo Fisher Scientific) according to the manufacturer's instructions. Protein concentrations were determined with the Biorad Protein Assay (Biorad). Proteins were separated on precast 8-12% Mini Protean TGX gels at 60-80 V using the Mini Protean electrophoresis system and were blotted onto PVDF membrane at 100V for 90 min in a Mini Trans-Blot Cell. All antibodies were used as recommended by the manufacturer and mentioned in Key Resource Table. Relative band intensities were quantified using ImageJ software.

The subject of data set [15] is ME-1 cells. Kind of data set: Cell viability (MTT) dose response and synergy analysis in ME-1 cells. The data set is classed as cell-based, human. To be noted: ME-1 cells treated 72 hr, MTT assay.
Experimental: Cell Viability Assay. Cell viability was estimated using the MTT kit, CellTiter 96® AQueous One Solution (Promega, PA). 20,000 cells/well were seeded in triplicate into 96-well plates. After 24-72 hrs, 20 μl of MTT reagent was added to wells containing cells or medium (blank), and absorption at 490 nm was measured using SpectraMax M5 plate reader (Molecular Devices).
The IC50 was estimated using the drc package in R with lower bound set to 0 (Ritz et al., 2015). CIs were calculated using the formula a/A+b/B. Synergisms, additive effect and antagonism of combine treatment assays are defined as CI<1, CI=1 and CI>1 respectively, utilizing the Chou-Talalay Method (Chou, 2010).
The test system of data set [16] is RUNX1. Kind of data set: ChIP-seq for RUNX1 in ME-1 cells. The format is cell-based, human. The following applies: AI-10-49 1 μM, 6 hrs. The protocol: as §5, §6, §7
The mark [17] stands for this setting: AI-10-49 versus DMSO, ME-1 cells.

In the case of `FC(F)(F)Oc1ccc2[nH]c(-c3ccccn3)nc2c1` [A-10-47, 2-(pyridin-2-yl)-5-(trifluoromethoxy)-1H-benzo[d]imidazole], in data set [1], the metabolic stability entry is “enhanced metabolic stability”.
For `FC(F)(F)Oc1ccc2[nH]c(-c3ccc(OCCOCCOc4ccc(-c5nc6cc(OC(F)(F)F)ccc6[nH]5)nc4)cn3)nc2c1` [AI-10-49], in data set [2], the “median latency of leukemia” value is listed as 39 days. The “effect on CBFβ function” value in [3] is given as “minimal effect”. Also, the “repression of MYC transcript levels” value is “not in non-inv(16) AML cell lines” in [4] and 10 fold in data set [12] (1 uM AI-10-49, 6 hrs, ME-1 cells). Besides, the “E2F1 levels repressed (RNA-seq)” value in data set [5] came out at 3 fold. In data set [5], the “MYC levels repressed (RNA-seq)” value is listed as “over 10 fold”. The “RING1B occupancy at E3” value in data set [6] amounted to 90%. The MYC expression entry in data set [7] is on record as “reduced”; in data set [8], “not affected”; in [9], “reduced”; in [10], “not affected”. Moreover, the H3K27ac positive peaks in [11] is given as 24,157 peaks. Moreover, the “MYC transcript and protein levels” value in [12] is recorded as “readily reduced”. In [13] (setting [17]), the “RUNX1 peak increase at BDME-E3” value is 8 fold. In addition, in data set [13] (setting [17]), the “RUNX1 peak increase at E5” value came out at 1.8 fold. Moreover, the “RUNX1 peak increase at ME1” value in data set [13] (setting [17]) is recorded as 5 fold. Besides, the “RUNX1 peak increase at ME2” value in data set [13] (setting [17]) worked out at 3 fold. For the same molecule, the “RUNX1 occupancy at E3” value in data set [13] (time course, by 5 hr of AI-10-49 treatment) came to 90%. In addition, the “MYC protein levels depleted” value in data set [14] was “approximately 20 fold”. Moreover, the “LD50 range at 95% confidence intervals” value in data set [15] was in the range of 0.398 to 0.537 mM. Besides, in data set [16] (versus DMSO), the “increase in RUNX1 binding to target regulatory elements” value is 7 fold. Besides, the RUNX1 binding sites in data set [16] (DMSO 991) is 6,652 sites.
For `Cc1sc2c(c1C)C(c1ccc(Cl)cc1)=N[C@@H](CC(=O)OC(C)(C)C)c1nnc(C)n1-2` [JQ1, reference compound], in data set [2], the “median latency of leukemia” value was determined as 32 days. Also, the “MYC transcript and protein levels” value in [12] is reported as “readily reduced”.
